Source: patent US12180226B2, “Spirotricycle RIPK1 inhibitors and methods of uses thereof” (Merck Sharp & Dohme LLC, priority 2021, dated 2024)
Counter-ions that a name gives are not always drawn.

molecular target: RIPK1 (recombinant GST-RIPK1 kinase domain, residues 1-327) (Homo sapiens (Human), UniProt Q13546); experiment: RIPK1-ADP-Glo Enzymatic Assay; type: biochemical; conditions: ADP-Glo; 25 nM GST-RIPK1, 300 μM ATP; assay lower limit ~25 nM; read-out: RIPK1 V0 Ec50
In short: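 GST-tagged kinase domain (residues 1-327, Sf21-expressed), 25 nM, pre-incubated 30 min with compound at ambient temperature, then reacted 150 min with 300 μM ATP and 3 μM dephosphorylated MBP in HEPES pH 7.3 buffer. ADP measured by ADP-Glo luminescence; EC50 from ten-point titration (top 100000 nM), four-parameter fit.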

RIPK1 (recombinant GST-RIPK1 kinase domain, residues 1-327), sequence (Q13546 1-327): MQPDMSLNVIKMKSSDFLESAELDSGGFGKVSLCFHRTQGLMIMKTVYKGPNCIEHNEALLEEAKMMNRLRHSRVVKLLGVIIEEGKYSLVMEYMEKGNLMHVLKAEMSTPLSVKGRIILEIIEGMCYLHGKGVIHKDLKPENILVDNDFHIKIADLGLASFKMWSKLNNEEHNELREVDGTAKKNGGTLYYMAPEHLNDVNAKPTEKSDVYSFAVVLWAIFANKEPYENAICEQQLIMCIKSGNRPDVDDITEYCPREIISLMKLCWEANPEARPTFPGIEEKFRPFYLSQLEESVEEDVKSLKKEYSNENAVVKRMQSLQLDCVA

EC50 [nM]	Compound
< 25	O=C1N2[C@@H](CC[C@H]2c2ccccc2)OC12CCN(c1ccc(F)c3ncnn13)CC2 [Example 4.223, (5′S,7a′R)-1-(8-fluoro[1,2,4]triazolo[1,5-a]pyridin-5-yl)-5′-phenyltetrahydro-3′H-spiro[piperidine-4,2′-pyrrolo[2,1-b] [1,3]oxazol]-3′-one]
36.1	CC(C)Oc1cccc(C(=O)N2CCC3(CC2)O[C@@H]2CC[C@@H](c4cc(F)cc(F)c4)N2C3=O)n1 [Example 6.90, (5′S,7a′R)-5′-(3,5-difluorophenyl)-1-{6-[(propan-2-yl)oxy]-pyridine-2-carbonyl} tetrahydro-3′H-spiro [piperidine-4,2′-pyrrolo[2,1-b][1,3]-oxazol]-3′-one]
47.6	O=C(c1cccc2ccnn12)N1CCC2(CC1)O[C@@H]1CC[C@@H](c3cc(F)cc(F)c3)N1C2=O [Example 6.27, (5′S,7a′R)-5′-(3,5-difluorophenyl)-1-(pyrazolo[1,5-a]pyridine-7-carbonyl) tetrahydro-3′H-spiro [piperidine-4,2′-pyrrolo[2,1-b][1,3]oxazol]-3′-one]
< 25	O=C1N2[C@@H](CC[C@H]2c2ccccc2)OC12CCN(c1ccc(-c3ncco3)cn1)CC2 [Example 21.16, (5′S,7a′R)-1-[5-(1,3-oxazol-2-yl)pyridin-2-yl]-5′-phenyltetrahydro-3′H-spiro[piperidine-4,2′-pyrrolo[2,1-b][1,3]oxazol]-3′-one]
< 25	C#Cc1cccc(C(=O)N2CCC3(CC2)O[C@@H]2CC[C@@H](c4cccc(F)c4)N2C3=O)c1 [Example 6.123, (5′S,7a′R)-1-(3-ethynylbenzene-1-carbonyl)-5′-(3-fluoro-phenyl)tetrahydro-3′H-spiro[piperidine-4,2′-pyrrolo[2,1-b][1,3]oxazol]-3-one]
< 25	O=C(c1ccc(F)cc1F)N1CCC2(CC1)O[C@@H]1CC[C@@H](c3cc(F)cc(F)c3)N1C2=O [Example 5.5, (5′S,7a′R)-1-(2,4-difluoro-benzene-1-carbonyl)5′-(3,5-difluorophenyl)tetra-hydro-3′H-spiro[piperi-dine-4,2′-pyrrolo[2,1-b] [1,3]oxazol]-3′-one]
< 25	C#Cc1cccc(C(=O)N2CCC3(CC2)O[C@@H]2CC[C@@H](c4ccccc4)N2C3=O)c1 [Example 6.141, (5′S,7a′R)-1-(3-ethynylbenzene-1-carbonyl)-5′-phenyl-tetrahydro-3′H-spiro [piperidine-4,2′-pyrrolo[2,1-b][1,3]oxazol]-3′-one]
< 25	COC(=O)c1cnc(N2CCC3(CC2)O[C@@H]2CC[C@@H](c4ccccc4)N2C3=O)cc1Cl [Example 4.211, methyl 4-chloro-6-[(5′S,7a′R)-3′-oxo-5′-phenyltetrahydro-1H,3′H-spiro[piperidine-4,2′-pyrrolo[2,1-b] [1,3]oxazol]-1-yl]pyridine-3-carboxylate]
67.1	O=C(c1nc2cnccc2s1)N1CCC2(CC1)O[C@@H]1CC[C@@H](c3cc(F)cc(F)c3)N1C2=O [Example 6.44, (5′S,7a′R)-5′-(3,5-difluorophenyl)-1-([1,3]thiazolo[4,5-c]pyridine-2-carbonyl) tetrahydro-3′H-spiro [piperidine-4,2′-pyrrolo[2,1-b][1,3]oxazol]-3′-one]
< 25	COc1cccc(C(=O)N2CCC3(CC2)O[C@@H]2CC[C@@H](c4ccccc4)N2C3=O)c1 [Example 6.155, (5′S,7a′R)-1-(3-methoxybenzene-1-carbonyl)-5′-phenyl-tetrahydro-3′H-spiro [piperidine-4,2′-pyrrolo[2,1-b][1,3]oxazol]-3′-one]
344	COc1cccc([C@@H]2CC[C@H]3OC4(CCN(C(=O)c5ccccc5)CC4)C(=O)N32)n1 [Example 17.5, (5′S,7a′R)-1-benzoyl-5′-(6-methoxypyridin-2-yl)tetrahydro-3′H-spiro[piperidine-4,2′-pyrrolo[2,1-b]oxazol]-3′-one, TFA salt]
29.1	O=C(c1ccccc1)N1CCC2(CC1)CC1COC(c3cc(F)cc(F)c3)N1C2=O (stereo not drawn) [Example 6.163, 1-(benzenecarbonyl)-3′-(3,5-difluoro-phenyl)dihydro-1′H,3′H,5′H-spiro [piperidine-4,6′-pyrrolo[1,2-c][1,3]oxazol]-5′-one]
< 25	N#Cc1ccc(N2CCC3(CC2)O[C@@H]2CC[C@@H](c4ccccc4)N2C3=O)n2ncnc12 [Example 4.261, 5-[(5′S,7a′R)-3′-oxo-5′-phenyltetrahydro-1H,3′H-spiro[piperidine-4,2′-pyrrolo[2,1-b] [1,3]oxazol]-1-yl][1,2,4]triazolo[1,5-a] pyridine-8-carbonitrile]
113	N#Cc1cncc(N2CCC3(CC2)O[C@@H]2CC[C@@H](c4ccccc4)N2C3=O)n1 [Example 4.7, 6-[(5′S,7a′R)-3′-oxo-5′-phenyltetrahydro-1H,3′H-spiro[piperidine-4,2′-pyrrolo[2,1-b] [1,3]oxazol]-1-yl]pyrazine-2-carbonitrile]
36.5	O=C(c1c(Cl)nc2ccccn12)N1CCC2(CC1)O[C@@H]1CC[C@@H](c3cc(F)cc(F)c3)N1C2=O [Example 6.31, (5′S,7a′R)-1-(2-chloroimidazo[1,2-a]pyridine-3-carbonyl)-5′-(3,5-difluorophen-yl)tetrahydro-3′H-spiro[piperidine-4,2′-pyrrolo[2,1-b][1,3]oxazol]-3′-one]
46.7	O=C1N2[C@@H](CC[C@H]2c2cccc(F)c2)OC12CCN(c1cc(F)ccn1)CC2 [Example 4.126, (5′S,7a′R)-5′-(3-fluorophenyl)-1-(4-fluoropyridin-2-yl)tetrahydro-3′H-spiro[piperidine-4,2′-pyrrolo[2,1-b] [1,3]oxazol]-3′-one]
94.4	O=C(c1ccccc1)N1CCC2(CC1)O[C@@H]1CC[C@@H](c3ccc(F)cn3)N1C2=O [Example 17.6, (5′S,7a′R)-1-benzoyl-5′-(5-fluoropyridin-2-yl)tetrahydro-3′H-spiro[piperidine-4,2′-pyrrolo[2,1-b]oxazol]-40′-one, TFA salt]
78.7	O=C(c1cccc(C23CC(C2)C3)n1)N1CCC2(CC1)O[C@@H]1CC[C@@H](c3cc(F)cc(F)c3)N1C2=O [Example 6.137, (5′S,7a′R)-1-[6-(bicyclo[1.1.1]pentan-1-yl)pyridine-2-car-bonyl]-5-(3,5-difluoro-phenyl)tetrahydro-3′H-spiro[piperidine-4,2′-pyrrolo[2,1-b] [1,3]oxazol]-3′-one]
< 25	N#Cc1ccc(N2CCC3(O[C@@H]4CC[C@@H](c5ccccc5)N4C3=O)C(F)C2)n2ncnc12 (stereo partly drawn) [Example 4.257, 5-[(5′S,7a′R)-3-fluoro-3′-oxo-5′-phenyltetrahydro-1H,3′H-spiro[piperidine-4,2′-pyrrolo[2,1-b] [1,3]oxazol]-1-yl][1,2,4]triazolo[1,5-a] pyridine-8-carbonitrile]
< 25	O=C(c1ccccc1)N1CCC2(CC1)O[C@@H]1CC[C@@H](c3cc(F)ccc3F)N1C2=O [Example 7.2, (5′S,7a′R)-1-(benzenecarbonyl)-5′-(2,5-difluorophenyl)tetrahydro-3′H-spiro[piperidine-4,2′-pyrrolo[2,1-b][1,3]oxazol]-3′-one]
249	CC(C)(C)OC(=O)c1ccc(N2CCC3(CC2)O[C@@H]2CC[C@@H](c4ccccc4)N2C3=O)nc1 [Example 4.198, tert-butyl 6-[(5′S,7a′R)-3′-oxo-5′-phenyltetrahydro-1H,3′H-spiro[piperidine-4,2′-pyrrolo[2,1-b] [1,3]oxazol]-1-yl]pyridine-3-carboxylate]
< 25	NC(=O)c1ccc(N2CCC3(CC2)O[C@@H]2CC[C@@H](c4ccccc4)N2C3=O)n2nccc12 [Example 4.155, 7-[(5′S,7a′R)-3′-oxo-5′-phenyltetrahydro-1H,3′H-spiro[piperidine-4,2′-pyrrolo[2,1-b] [1,3]oxazol]-1-yl]pyrazolo[1,5-a] pyridine-4-carboxamide]
37.4	CSc1nc(C)cc(N2CCC3(CC2)O[C@@H]2CC[C@@H](c4ccccc4)N2C3=O)n1 [Example 4.36, (5′S,7a′R)-1-[6-methyl-2-(methylsulfanyl)pyrimidin-4-yl]-5′-phenyltetrahydro-3′H-spiro[piperidine-4,2′-pyrrolo[2,1-b] [1,3]oxazol]-3′-one]
83	NC(=O)c1cc(N2CCC3(CC2)O[C@@H]2CC[C@@H](c4cc(F)cc(F)c4)N2C3=O)ncn1 [Example 4.185, 6-[(5′S,7a′R)-5′-(3,5-difluorophenyl)-3′-oxotetrahydro-1H,3′H-spiro[piperidine-4,2′-pyrrolo[2,1-b] [1,3]oxazol]-1-yl]pyrimidine-4-carboxamide]
572	Cc1ncc(C(=O)N2CCC3(CC2)O[C@@H]2CC[C@@H](c4cc(F)cc(F)c4)N2C3=O)cn1 [Example 6.77, (5′S,7a′R)-5′-(3,5-difluorophenyl)-1-(2-methylpyrimidine-5-carbonyl)tetrahydro-3′H-spiro[piperidine-4,2′-pyrrolo[2,1-b] [1,3]oxazol]-3′-one]
78.1	O=C(c1csnn1)N1CCC2(CC1)O[C@@H]1CC[C@@H](c3cc(F)cc(F)c3)N1C2=O [Example 5.49, (5′S,7a′R)-5′-(3,5-difluoro-phenyl)-1-(1,2,3-thiadi-azole-4-carbonyl)tetra-hydro-3′H-spiro[piperidine-4,2′-pyrrolo[2,1-b]oxazol]-3′-one]
38.4	O=C1N2[C@@H](CC[C@H]2c2cc(F)cc(F)c2)OC12CCN(c1ncc(F)c(C(F)F)n1)CC2 [Example 4.66, (5′S,7a′R)-1-[4-(difluoromethyl)-5-fluoropyrimidin-2-yl]-5′-(3,5-difluorophenyl)tetrahydro-3′H-spiro[piperidine-4,2′-pyrrolo[2,1-b] [1,3]oxazol]-3′-one]
